Assay results published in ChEMBL document CHEMBL1201862, “PubChem BioAssay data set” (2004).
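Briefly, cells in 96-well plates were exposed to five compound concentrations for 48 h, and endpoints were estimated by linear interpolation. GI50 marks 50% less growth.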 The source made the active and inactive calls. No stated cut-off is given here; in the data, active = GI50 up to about 1.1 µM and inactive = higher.

How the values were obtained:
Assay in all cases: NCI tumour cell line growth inhibition, 48 h
CAKI-1 = test system: CAKI-1
EKVX = test system: EKVX
HCT-116 = test system: HCT-116
HCT-15 = test system: HCT-15
HL-60 = test system: HL-60
HOP-62 = test system: HOP-62
HT-29 = test system: HT-29
KM12 = test system: KM12
MDA-N = test system: MDA-N
NCI-H460 = test system: NCI-H460
OVCAR-5 = test system: OVCAR-5
SF-295 = test system: SF-295
SK-MEL-28 = test system: SK-MEL-28
SK-MEL-2 = test system: SK-MEL-2
SNB-75 = test system: SNB-75
U-251 = test system: U-251
COLO 205 = test system: COLO 205
HOP-92 = test system: HOP-92
K562 = test system: K562
SR = test system: SR

Compound | GI50 (CAKI-1) | GI50 (EKVX) | GI50 (HCT-116) | GI50 (HCT-15) | GI50 (HL-60) | GI50 (HOP-62) | GI50 (HT-29) | GI50 (KM12) | GI50 (MDA-N) | GI50 (NCI-H460) | GI50 (OVCAR-5) | GI50 (SF-295) | GI50 (SK-MEL-28) | GI50 (SK-MEL-2) | GI50 (SNB-75) | GI50 (U-251) | GI50 (COLO 205) | GI50 (HOP-92) | GI50 (K562) | GI50 (SR)
CN1CCN(CCCN2c3ccccc3Sc3ccc(C(F)(F)F)cc32)CC1 | 10.9 µM (inactive) | 14.5 µM (inactive) | 8.04 µM (inactive) | 7.1 µM | 6.14 µM (inactive) | 13.1 µM (inactive) | 2.44 µM (inactive) | 5.14 µM (inactive) | 3.6 µM (inactive) | 3.86 µM (inactive) | 10.1 µM (inactive) | 9.89 µM (inactive) | 1.82 µM (inactive) | 7.93 µM (inactive) | 7.24 µM (inactive) | 8.34 µM (inactive) |  |  |  | 
CN(C)Cc1nsc(N(C)C)n1 | > 100 µM (inactive) | > 100 µM (inactive) | > 100 µM (inactive) | > 100 µM |  | > 100 µM (inactive) | > 100 µM (inactive) | > 100 µM (inactive) | > 100 µM (inactive) | > 100 µM (inactive) | > 100 µM (inactive) | > 100 µM (inactive) | > 100 µM (inactive) | > 100 µM (inactive) | > 100 µM (inactive) | > 100 µM (inactive) | > 100 µM (inactive) | > 100 µM (inactive) | > 100 µM (inactive) | 
Cc1ccc(S[C@@H](C)[C@@](O)(CF)CN(Cc2ccccc2)C(=O)C(F)(F)F)cc1 | 25.5 µM (inactive) | 21.8 µM (inactive) | 11.4 µM (inactive) | 17.1 µM | 19.2 µM (inactive) |  | 10.3 µM (inactive) |  | 22.8 µM (inactive) | 15.5 µM (inactive) | 14.8 µM (inactive) |  | > 100 µM (inactive) | 18.5 µM (inactive) |  | 19 µM (inactive) |  | 4.65 µM (inactive) |  | 
COC(=O)c1nsc(OC)c1Cl | > 100 µM (inactive) | > 100 µM (inactive) | > 100 µM (inactive) | > 100 µM | > 100 µM (inactive) | > 100 µM (inactive) | > 100 µM (inactive) | > 100 µM (inactive) | > 100 µM (inactive) |  | > 100 µM (inactive) | > 100 µM (inactive) | > 100 µM (inactive) |  | > 100 µM (inactive) | > 100 µM (inactive) | > 100 µM (inactive) |  | > 100 µM (inactive) | 
C=CCn1c(-c2ccc([N+](=O)[O-])cc2)csc1=N | 69.5 µM (inactive) | 16.4 µM (inactive) | 37.3 µM (inactive) | 64.7 µM | 18.9 µM (inactive) | 78.2 µM (inactive) | 32 µM (inactive) | 36.6 µM (inactive) | 29.1 µM (inactive) | 61.1 µM (inactive) | > 100 µM (inactive) | 18.4 µM (inactive) | > 100 µM (inactive) | 91.2 µM (inactive) | 19.5 µM (inactive) | 54.1 µM (inactive) | > 100 µM (inactive) | 47.5 µM (inactive) | 9.59 µM (inactive) | 
CCCc1c(OC)c(=O)c2c(OC)cc(OC)c3c4c(OC)cc(OC)c5c(=O)c(OC)c(CCC)c(c1c23)c54 | 14.6 µM (inactive) | 11.8 µM (inactive) | 13.8 µM (inactive) | 12.8 µM | 2.77 µM (inactive) | 18 µM (inactive) | 11.4 µM (inactive) | 14.6 µM (inactive) | 15.2 µM (inactive) | 13.7 µM (inactive) | 15.2 µM (inactive) | 17.8 µM (inactive) | 13.4 µM (inactive) | 22 µM (inactive) | 7.23 µM (inactive) | 16 µM (inactive) | 8.47 µM (inactive) | 10.9 µM (inactive) |  | 
O=C1C[C@H]2[C@@H](O1)[C@@H](O)CN1C(=O)c3ccccc3[C@H]21 | > 100 µM (inactive) | > 100 µM (inactive) | > 100 µM (inactive) | > 100 µM |  | > 100 µM (inactive) | > 100 µM (inactive) | > 100 µM (inactive) | > 100 µM (inactive) | > 100 µM (inactive) | > 100 µM (inactive) | > 100 µM (inactive) | > 100 µM (inactive) | > 100 µM (inactive) | > 100 µM (inactive) | > 100 µM (inactive) | > 100 µM (inactive) |  | > 100 µM (inactive) | > 100 µM (inactive)
CCC1(CC)SCc2nc3ccccc3n21 | 35.2 µM (inactive) | 27.3 µM (inactive) | 23.9 µM (inactive) | 36.2 µM | 26 µM (inactive) | 37.1 µM (inactive) | 32.3 µM (inactive) | 23.9 µM (inactive) | 34.9 µM (inactive) | 36.9 µM (inactive) | 45.6 µM (inactive) | 36.5 µM (inactive) | 37.2 µM (inactive) | 27.5 µM (inactive) | 12.6 µM (inactive) | 37.2 µM (inactive) | 19.8 µM (inactive) | 18 µM (inactive) | 18.9 µM (inactive) | 
COc1cc2oc(=O)cc(C)c2cc1OC |  | > 100 µM (inactive) | > 100 µM (inactive) | > 100 µM |  | > 100 µM (inactive) | > 100 µM (inactive) | > 100 µM (inactive) | > 100 µM (inactive) |  | > 100 µM (inactive) | > 100 µM (inactive) | > 100 µM (inactive) | > 100 µM (inactive) | > 100 µM (inactive) | > 100 µM (inactive) | > 100 µM (inactive) |  | > 100 µM (inactive) | > 100 µM (inactive)
CCN(CC)/C(SCc1ccccc1)=C(\C(Cl)=C(Cl)Cl)[N+](=O)[O-] | 28.2 µM (inactive) | 22.9 µM (inactive) | 14.7 µM (inactive) | 25.5 µM | 15.8 µM (inactive) | 22 µM (inactive) | 25.8 µM (inactive) | 21 µM (inactive) | 16.4 µM (inactive) | 22.3 µM (inactive) | 17.9 µM (inactive) | 36.1 µM (inactive) | 15.9 µM (inactive) | 21.7 µM (inactive) |  | 22.9 µM (inactive) | 17.6 µM (inactive) |  | 25.8 µM (inactive) | 17.8 µM (inactive)
O=C(O)CC/C(=N\Nc1nsc2ccccc12)c1ccc(Cl)cc1 | 23.3 µM (inactive) | 69.5 µM (inactive) | 17.9 µM (inactive) | 21.1 µM | 23.6 µM (inactive) | 23.5 µM (inactive) | 29.8 µM (inactive) | 22.9 µM (inactive) | 31.3 µM (inactive) | 28.4 µM (inactive) | 54.5 µM (inactive) | 32.8 µM (inactive) | 17.5 µM (inactive) | 36.5 µM (inactive) | 28.5 µM (inactive) | 18 µM (inactive) | 43.4 µM (inactive) | 24 µM (inactive) | 23 µM (inactive) | 
CC1(C)C2CCC1(C)C(N/C(Sc1ccccc1)=C(/C(Cl)=C(Cl)Cl)[N+](=O)[O-])C2 (stereo unspecified) | 15.2 µM (inactive) | 13.4 µM (inactive) | 15.5 µM (inactive) | 10.4 µM |  | 18.5 µM (inactive) | 10.4 µM (inactive) | 4.8 µM (inactive) | 10.6 µM (inactive) | 15.3 µM (inactive) | 13.9 µM (inactive) | 13.1 µM (inactive) | 12.4 µM (inactive) | 12.5 µM (inactive) | 15.6 µM (inactive) | 11.4 µM (inactive) |  |  | 6.35 µM (inactive) | 
